Measured values from article PMC10583824, “The rational design of ARUK2007145, a dual inhibitor of the α and γ isoforms of the lipid kinase phosphatidylinositol 5-phosphate 4-kinase (PI5P4K)” (RSC Medicinal Chemistry, 2023).

System: PI5P4Kγ+
Experiment: not given
Conditions: ratio PI5P4Kα IC50 / PI5P4Kγ+ IC50, ADP-Glo

SMILES | Fold-selectivity (α IC50/γ IC50)
CS(=O)(=O)c1ccc(Nc2ncnc3sc(-c4ccncc4)cc23)cc1 [Compound 6] | 63
COc1cnccc1-c1cc2c(Nc3ccc(S(C)(=O)=O)cc3)ncnc2s1 [Compound 11] | 79
CS(=O)(=O)c1ccc(Nc2ncnc3sc(-c4cccnc4)cc23)cc1 [Compound 9] | 130
CS(=O)(=O)c1ccc(Nc2ncnc3sc(-c4ccnc(Cl)c4)cc23)cc1 [Compound 13] | 130
Cc1sc2ncnc(Nc3ccc(S(C)(=O)=O)cc3)c2c1C [Compound 35] | >250

The remaining lines, values ahead:

Fold-selectivity (α IC50/γ IC50) | SMILES
12 | CSc1ccc(Nc2ncnc3sc(-c4cccnc4Cl)cc23)cc1 [Compound 28]
5.0 | CSc1ccc(Nc2ncnc3sc(-c4cccnc4C)cc23)cc1 [Compound 25]
0.63 | Cc1cccc(Nc2ncnc3sc(-c4cccnc4C)cc23)c1 [Compound 21]
1.1 | COc1ccc(Nc2ncnc3sc(-c4ccncc4C)cc23)cc1 [Compound 27]
0.4 | Cc1ccc(Nc2ncnc3sc(-c4cccnc4C)cc23)cc1 [Compound 22]

Target: T1, PI5P4Kγ+ (Homo sapiens, UniProt Q8TBX8, D138G/D197E/E133P/E135D/E153T/E196G/G139A/N195G/S132L/S134N)
T1 sequence (Q8TBX8 with tags, fused parts or gaps INS131LPN/S132D/E133S/S134Q/E135A/G136R/D138G/G139A/E153T/N195G/E196G/D197E): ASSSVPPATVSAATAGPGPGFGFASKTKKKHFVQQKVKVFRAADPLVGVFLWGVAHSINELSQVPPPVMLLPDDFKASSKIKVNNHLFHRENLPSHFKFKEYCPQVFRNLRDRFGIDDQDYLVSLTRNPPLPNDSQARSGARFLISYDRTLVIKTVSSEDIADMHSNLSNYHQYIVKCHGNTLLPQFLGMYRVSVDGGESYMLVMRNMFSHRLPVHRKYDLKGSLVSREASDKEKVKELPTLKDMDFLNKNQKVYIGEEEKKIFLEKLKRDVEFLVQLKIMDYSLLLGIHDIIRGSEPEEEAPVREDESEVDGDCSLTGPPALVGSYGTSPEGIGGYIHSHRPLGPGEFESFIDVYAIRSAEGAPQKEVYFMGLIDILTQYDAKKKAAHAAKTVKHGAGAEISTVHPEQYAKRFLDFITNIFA
Experiment: biochemical
Conditions: ADP-Glo pIC50 PI5P4Kγ+, Table S1, two decimals; asterisk not explained

SMILES | IC50
CS(=O)(=O)c1ccc(Nc2ncnc3sc(-c4ccncc4)cc23)cc1 [Compound 6] | 22.4 nM
COc1cnccc1-c1cc2c(Nc3ccc(S(C)(=O)=O)cc3)ncnc2s1 [Compound 11] | 32.4 nM
CS(=O)(=O)c1ccc(Nc2ncnc3sc(-c4cccnc4)cc23)cc1 [Compound 9] | 34.7 nM
CS(=O)(=O)c1ccc(Nc2ncnc3sc(-c4ccnc(Cl)c4)cc23)cc1 [Compound 13] | 64.6 nM

Next, values leading:

IC50 | SMILES
18.6 nM | CSc1ccc(Nc2ncnc3sc(-c4cccnc4Cl)cc23)cc1 [Compound 28]
46.8 nM | CSc1ccc(Nc2ncnc3sc(-c4cccnc4C)cc23)cc1 [Compound 25]
5250 nM | Cc1cccc(Nc2ncnc3sc(-c4cccnc4C)cc23)c1 [Compound 21]
661 nM | COc1ccc(Nc2ncnc3sc(-c4ccncc4C)cc23)cc1 [Compound 27]
1550 nM | Cc1ccc(Nc2ncnc3sc(-c4cccnc4C)cc23)cc1 [Compound 22]

Same assay, conditions: PI5P4Kγ+ pIC50, ADP-Glo; footnote a: inconsistent replicates, value shown is upper limit

SMILES | IC50
CS(=O)(=O)c1ccc(Nc2ncnc3sc(-c4ccncc4)cc23)cc1 [Compound 6] | 20 nM
COc1cnccc1-c1cc2c(Nc3ccc(S(C)(=O)=O)cc3)ncnc2s1 [Compound 11] | ≥ 31.6 nM
CS(=O)(=O)c1ccc(Nc2ncnc3sc(-c4cccnc4)cc23)cc1 [Compound 9] | 31.6 nM
CS(=O)(=O)c1ccc(Nc2ncnc3sc(-c4ccnc(Cl)c4)cc23)cc1 [Compound 13] | 63.1 nM
Cc1sc2ncnc(Nc3ccc(S(C)(=O)=O)cc3)c2c1C [Compound 35] | 200 nM

Now from value to compound:

IC50 | SMILES
20 nM | CSc1ccc(Nc2ncnc3sc(-c4cccnc4Cl)cc23)cc1 [Compound 28]
50.1 nM | CSc1ccc(Nc2ncnc3sc(-c4cccnc4C)cc23)cc1 [Compound 25]
5010 nM | Cc1cccc(Nc2ncnc3sc(-c4cccnc4C)cc23)c1 [Compound 21]
631 nM | COc1ccc(Nc2ncnc3sc(-c4ccncc4C)cc23)cc1 [Compound 27]
1580 nM | Cc1ccc(Nc2ncnc3sc(-c4cccnc4C)cc23)cc1 [Compound 22]

Target: T2, PI5P4Kα (Homo sapiens, UniProt P48426)
T2 sequence (P48426 1-406): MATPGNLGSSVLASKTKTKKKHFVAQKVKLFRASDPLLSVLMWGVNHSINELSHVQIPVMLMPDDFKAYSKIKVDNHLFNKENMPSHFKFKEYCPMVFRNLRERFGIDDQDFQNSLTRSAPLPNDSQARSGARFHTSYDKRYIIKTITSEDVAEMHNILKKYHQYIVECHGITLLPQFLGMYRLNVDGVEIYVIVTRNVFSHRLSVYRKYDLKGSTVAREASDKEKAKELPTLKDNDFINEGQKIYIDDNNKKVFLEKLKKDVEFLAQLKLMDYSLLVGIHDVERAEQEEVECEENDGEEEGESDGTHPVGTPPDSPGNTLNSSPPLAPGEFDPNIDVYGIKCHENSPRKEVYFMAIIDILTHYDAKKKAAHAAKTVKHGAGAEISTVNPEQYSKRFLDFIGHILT
Experiment: biochemical
Conditions: ADP-Glo pIC50 PI5P4Kα, Table S1, two decimals; asterisk not explained

SMILES | IC50
CS(=O)(=O)c1ccc(Nc2ncnc3sc(-c4ccncc4)cc23)cc1 [Compound 6] | 1410 nM
CS(=O)(=O)c1ccc(Nc2ncnc3sc(-c4cccnc4)cc23)cc1 [Compound 9] | 4570 nM

Results, then the compound that gave them:

IC50 | SMILES
229 nM | CSc1ccc(Nc2ncnc3sc(-c4cccnc4Cl)cc23)cc1 [Compound 28]
282 nM | CSc1ccc(Nc2ncnc3sc(-c4cccnc4C)cc23)cc1 [Compound 25]
3550 nM | Cc1cccc(Nc2ncnc3sc(-c4cccnc4C)cc23)c1 [Compound 21]
708 nM | COc1ccc(Nc2ncnc3sc(-c4ccncc4C)cc23)cc1 [Compound 27]

Same assay, conditions: PI5P4Kα pIC50, ADP-Glo; footnote a: inconsistent replicates, value shown is upper limit

IC50 | SMILES
≥ 2510 nM | COc1cnccc1-c1cc2c(Nc3ccc(S(C)(=O)=O)cc3)ncnc2s1 [Compound 11]
≥ 7940 nM | CS(=O)(=O)c1ccc(Nc2ncnc3sc(-c4ccnc(Cl)c4)cc23)cc1 [Compound 13]

Target: T2, PI5P4Kα
Experiment: not given
Conditions: ADP-Glo; footnote a: inconsistent replicates, value shown is upper limit

SMILES | PI5P4Kα pIC50
CS(=O)(=O)c1ccc(Nc2ncnc3sc(-c4ccncc4)cc23)cc1 [Compound 6] | 5.9
CS(=O)(=O)c1ccc(Nc2ncnc3sc(-c4cccnc4)cc23)cc1 [Compound 9] | 5.3
Cc1sc2ncnc(Nc3ccc(S(C)(=O)=O)cc3)c2c1C [Compound 35] | <4.3

Further lines, results first:

PI5P4Kα pIC50 | SMILES
6.6 | CSc1ccc(Nc2ncnc3sc(-c4cccnc4Cl)cc23)cc1 [Compound 28]
6.6 | CSc1ccc(Nc2ncnc3sc(-c4cccnc4C)cc23)cc1 [Compound 25]
5.5 | Cc1cccc(Nc2ncnc3sc(-c4cccnc4C)cc23)c1 [Compound 21]
6.2 | COc1ccc(Nc2ncnc3sc(-c4ccncc4C)cc23)cc1 [Compound 27]
6.2 | Cc1ccc(Nc2ncnc3sc(-c4cccnc4C)cc23)cc1 [Compound 22]

Same assay, conditions: Table S1, two decimals; asterisk not explained

ADP-Glo pIC50 PI5P4Kα | SMILES
5.58 | COc1cnccc1-c1cc2c(Nc3ccc(S(C)(=O)=O)cc3)ncnc2s1 [Compound 11]
5.08 | CS(=O)(=O)c1ccc(Nc2ncnc3sc(-c4ccnc(Cl)c4)cc23)cc1 [Compound 13]
6.22 | Cc1ccc(Nc2ncnc3sc(-c4cccnc4C)cc23)cc1 [Compound 22]
